Measurements from patent US20060128720A1, “Inhibition of cell death responses induced by oxidative stress” (priority 2002, published 2006).

Key:
U-937 cells = experiment: H2O2-induced apoptosis (sub-G1 DNA, propidium iodide) in U-937 cells; assay type: cell-based, human; details: 10 μM 24 hours, then 1 mM H2O2 18 hours
Protocol: (§1) Ethanol-fixed cells were stained with propidium iodide and monitored for sub-G1 DNA (upper panels). The percentage (mean±S.E.) of cells with sub-G1 DNA was determined from three separate experiments (lower panels).
(§2) Ethanol-fixed cells were stained with propidium iodide and monitored for sub-G1 DNA by FACScan (Becton-Dickinson) (FIGS. 3A and 3C). The percentage (mean±S.E.) of cells with sub-G1 DNA was determined from three separate experiments (FIGS. 3B and 3D).

[1] = test system: mouse embryo fibroblasts (MEFs); experiment: Mitochondrial transmembrane potential (Rhodamine123 flow cytometry) in MEFs; assay type: cell-based; details: 10 μM 24 hours
Protocol: The cells were stained with 50 ng/ml Rhodamine123 for 15 minutes and analyzed by flow cytometry (left panels).
The cells were stained with 50 ng/ml Rhodamine123 (Molecular Probes) for 15 minutes at 37° C. Samples were analyzed by flow cytometry using 488 nm excitation and measurement of emission through a 576/26 (ethidium) bandpass filter (FIGS. 2A and 2B, left panels).

[2] = test system: mouse embryo fibroblasts (MEFs); experiment: H2O2-induced apoptosis (sub-G1 DNA, propidium iodide) in MEFs; assay type: cell-based; details: 10 μM 24 hours, then 1 mM H2O2 18 hours
Protocol: as §1, §2

Cc1ccc(NC(=O)c2ccc(CN3CCN(C)CC3)cc2)cc1Nc1nccc(-c2cccnc2)n1 [STI571, 4-[(4-Methyl-1-piperazinyl)methyl]-N-[4-methyl-3-[[4-(3-pyridinyl)-2-pyrimidinyl]amino-]-phenyl]benzanide methanesulfonate]
inhibition of H2O2-induced apoptosis (cells with sub-G1 DNA) (U-937 cells): over 80% | effect of STI571 alone on mitochondrial transmembrane potential ([1]; no H2O2): no apparent effect | H2O2-induced decrease in mitochondrial transmembrane potential ([1]; then 1 mM H2O2 6 hours): substantially inhibited | inhibitory effects on loss of mitochondrial transmembrane potential at longer periods of H2O2 exposure ([1]; then H2O2 18 hours): detectable | decrease of H2O2-induced apoptosis (cells with sub-G1 DNA) [2]: 50%
